The values that follow come from patent publication US20250230171A1 (MOMA Therapeutics, Inc., priority 2023, published 2025).

Assay [1] has as its system DLD1 WT cells. Put plainly: 7-day cell viability assay (CellTiter-Glo), DLD1 parental (WT). The note with it: Homo sapiens, DLD-1, 168 h, 7-day viability, n=2. The class given is cell-based, human. On the technique in general: In ATP-based viability assays light output follows the ATP content of the culture.
In assay [2] the test system is DLD1 BRCA2 (−/−) cells. Put plainly: 7-day cell viability assay (CellTiter-Glo), DLD1 BRCA2 (−/−). The class given is cell-based, human. The note with it: Homo sapiens, DLD-1, 168 h, 7-day viability, n=2, read-out: Viability IC50 (uM) DLD1 BRCA2 null. In short, it runs like this:
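7-day growth assay in DLD1 cells with or without BRCA2; seeding densities chosen to keep log-linear growth. Compound: 10 uM top, 3-fold, 9 points. Endpoint: CTG ATP luminescence at RT.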

Assay [3] has as its target biotinylated Avi-POLθ[2-894] (Homo sapiens (Human), UniProt O75417). Put plainly: POLθ ATPase assay (ADP-Glo). The note with it: n=2; read-out: Biochemical ATPase ADPGlo IC50. (ADP-Glo first removes unused ATP, then detects ADP through luciferase.)

pIC50: −log10 of the molar value.

A word on the IC50: it is the concentration that gives 50% inhibition. As a reminder, the pIC50 is the IC50 on a negative log10 scale, so that one unit is a factor of ten.

biotinylated Avi-POLθ[2-894], sequence (O75417 2-894): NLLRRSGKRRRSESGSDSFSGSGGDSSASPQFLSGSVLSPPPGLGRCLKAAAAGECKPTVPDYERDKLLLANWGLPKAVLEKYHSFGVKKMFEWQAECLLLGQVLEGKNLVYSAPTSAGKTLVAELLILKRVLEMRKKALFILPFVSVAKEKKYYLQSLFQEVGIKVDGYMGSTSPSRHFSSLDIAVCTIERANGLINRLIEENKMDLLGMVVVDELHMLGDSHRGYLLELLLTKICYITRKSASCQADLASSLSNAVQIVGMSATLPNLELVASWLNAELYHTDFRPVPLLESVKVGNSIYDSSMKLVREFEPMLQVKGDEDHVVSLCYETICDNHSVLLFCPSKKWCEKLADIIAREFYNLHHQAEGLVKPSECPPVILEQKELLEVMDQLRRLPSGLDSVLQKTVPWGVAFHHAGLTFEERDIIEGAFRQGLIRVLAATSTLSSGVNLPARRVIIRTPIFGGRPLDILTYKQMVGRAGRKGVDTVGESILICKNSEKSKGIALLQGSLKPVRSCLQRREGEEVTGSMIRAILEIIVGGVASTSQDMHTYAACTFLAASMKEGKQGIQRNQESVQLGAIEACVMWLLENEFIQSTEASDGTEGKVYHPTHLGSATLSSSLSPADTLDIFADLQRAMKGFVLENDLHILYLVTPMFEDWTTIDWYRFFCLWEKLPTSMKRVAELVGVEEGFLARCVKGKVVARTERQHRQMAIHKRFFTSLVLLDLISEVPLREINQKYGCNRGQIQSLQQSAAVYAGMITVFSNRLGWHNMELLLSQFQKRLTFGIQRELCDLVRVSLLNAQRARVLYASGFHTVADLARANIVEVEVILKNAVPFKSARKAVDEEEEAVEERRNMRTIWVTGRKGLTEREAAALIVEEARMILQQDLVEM

Take `COc1cnc(Cl)cc1-c1cc(C)ncc1C(=O)Nc1nc2c(s1)CN(C(=O)C1CC3(CCC3)C1)C2` [Example 8, 2′-chloro-5′-methoxy-6-methyl-N-(5-(spiro[3.3]heptane-2-carbonyl)-5,6-dihydro-4H-pyrrolo[3,4-d]thiazol-2-yl)-[4,4′-bipyridine]-3-carboxamide]: the values for the IC50 in assay [1] and in assay [2] were 5 to 10 µM and 0.001 to 0.1 µM, respectively. Moreover, the pIC50 in assay [3] is 7.82 to 9.00.
For `COc1cnc(Cl)cc1-c1cc(C)ncc1C(=O)Nc1nc2c(s1)CN(C(=O)c1ccc(C(F)F)cn1)C2` [Example 9, 2′-chloro-N-(5-(5-(difluoromethyl)picolinoyl)-5,6-dihydro-4H-pyrrolo[3,4-d]thiazol-2-yl)-5′-methoxy-6-methyl-[4,4′-bipyridine]-3-carboxamide], in that order: no less than 10 µM, 0.001 to 0.1 µM and 7.82 to 9.00.
For `COc1cnc(Cl)cc1-c1cc(C)ncc1C(=O)Nc1nc2c(s1)CN(C(=O)[C@H]1C[C@@H](OC(F)F)C1)C2` [Example 10, 2′-chloro-N-(5-((1s,3s)-3-(difluoromethoxy)cyclobutane-1-carbonyl)-5,6-dihydro-4H-pyrrolo[3,4-d]thiazol-2-yl)-5′-methoxy-6-methyl-[4,4′-bipyridine]-3-carboxamide], in that order: no less than 10 µM, 0.001 to 0.1 µM and 7.82 to 9.00.
The corresponding values for `COc1cnc(Cl)cc1-c1cc(C)ncc1C(=O)Nc1nc2c(s1)CN(C(=O)c1ccc(Cl)cn1)C2` [Example 11, 2′-chloro-N-(5-(5-chloropicolinoyl)-5,6-dihydro-4H-pyrrolo[3,4-d]thiazol-2-yl)-5′-methoxy-6-methyl-[4,4′-bipyridine]-3-carboxamide] are 2 to 5 µM, 0.001 to 0.1 µM and 7.82 to 9.00.
Regarding `COc1cnc(Cl)cc1-c1cc(C)ncc1C(=O)Nc1nc2c(s1)CN(C(=O)c1ccc(C(F)F)nc1)C2` [Example 12, 2′-chloro-N-(5-(6-(difluoromethyl)nicotinoyl)-5,6-dihydro-4H-pyrrolo[3,4-d]thiazol-2-yl)-5′-methoxy-6-methyl-[4,4′-bipyridine]-3-carboxamide], the half-maximal inhibitory concentration (IC50) in assay [1] is no less than 10 µM; in assay [2], 0.001 to 0.1 µM. Also, in assay [3], the negative logarithm of the IC50 (pIC50) is 7.82 to 9.00.
As for `COc1cnc(Cl)cc1-c1cc(C)ncc1C(=O)Nc1nc2c(s1)CN(C(=O)c1ccc(Cl)nc1)C2` [Example 13, 2′-chloro-N-(5-(6-chloronicotinoyl)-5,6-dihydro-4H-pyrrolo[3,4-d]thiazol-2-yl)-5′-methoxy-6-methyl-[4,4′-bipyridine]-3-carboxamide], the figures for the 50% inhibitory concentration (IC50) in assay [1] and in assay [2] were no less than 10 µM and 0.001 to 0.1 µM, respectively. Also, the pIC50 in assay [3] was 7.82 to 9.00.
The corresponding values for `COc1cnc(Cl)cc1-c1cc(C)ncc1C(=O)Nc1nc2c(s1)CN(C(=O)c1ccc(C(F)(F)F)nn1)C2` [Example 14, 2′-chloro-5′-methoxy-6-methyl-N-(5-(6-(trifluoromethyl)pyridazine-3-carbonyl)-5,6-dihydro-4H-pyrrolo[3,4-d]thiazol-2-yl)-[4,4′-bipyridine]-3-carboxamide] are no less than 10 µM, 0.001 to 0.1 µM and 7.82 to 9.00.
For `COc1cnc(Cl)cc1-c1cc(C)ncc1C(=O)Nc1nc2c(s1)CN(C(=O)c1ccc(C(F)(F)F)nc1OC)C2` [Example 15, 2′-chloro-5′-methoxy-N-(5-(2-methoxy-6-(trifluoromethyl)nicotinoyl)-5,6-dihydro-4H-pyrrolo[3,4-d]thiazol-2-yl)-6-methyl-[4,4′-bipyridine]-3-carboxamide], in that order: 5 to 10 µM, 0.001 to 0.1 µM and 7.82 to 9.00.
For `COc1cnc(Cl)cc1-c1cc(C)ncc1C(=O)Nc1nc2c(s1)CN(C(=O)c1ncc(C(F)(F)F)cc1Cl)C2` [Example 16, 2′-chloro-N-(5-(3-chloro-5-(trifluoromethyl)picolinoyl)-5,6-dihydro-4H-pyrrolo[3,4-d]thiazol-2-yl)-5′-methoxy-6-methyl-[4,4′-bipyridine]-3-carboxamide], the results for the IC50 in assay [1] and in assay [2] were no less than 10 µM and 0.001 to 0.1 µM, respectively. In addition, the negative logarithm of the IC50 (pIC50) in assay [3] is 7.82 to 9.00.
On to `COc1cnc(Cl)cc1-c1cc(C)ncc1C(=O)Nc1nc2c(s1)CN(C(=O)c1cc(C)n(C)n1)C2` [Example 17, 2′-chloro-N-(5-(1,5-dimethyl-1H-pyrazole-3-carbonyl)-5,6-dihydro-4H-pyrrolo[3,4-d]thiazol-2-yl)-5′-methoxy-6-methyl-[4,4′-bipyridine]-3-carboxamide], for which the figures for the IC50 in assay [1] and in assay [2] were 0.001 to 0.5 µM and 0.001 to 0.1 µM, respectively. In addition, the negative-log IC50 (pIC50) in assay [3] was 7.82 to 9.00.
The corresponding values for `COc1cnc(Cl)cc1-c1cc(C)ncc1C(=O)Nc1nc2c(s1)CN(C(=O)c1cccc(C(F)F)n1)C2` [Example 18, 2′-chloro-N-(5-(6-(difluoromethyl)picolinoyl)-5,6-dihydro-4H-pyrrolo[3,4-d]thiazol-2-yl)-5′-methoxy-6-methyl-[4,4′-bipyridine]-3-carboxamide] are 5 to 10 µM, 0.001 to 0.1 µM and 7.82 to 9.00.
The corresponding values for `COc1cnc(Cl)cc1-c1cc(C)ncc1C(=O)Nc1nc2c(s1)CN(C(=O)c1cnccc1Cl)C2` [Example 19, 2′-chloro-N-(5-(4-chloronicotinoyl)-5,6-dihydro-4H-pyrrolo[3,4-d]thiazol-2-yl)-5′-methoxy-6-methyl-[4,4′-bipyridine]-3-carboxamide] are no less than 10 µM, 0.001 to 0.1 µM and 7.82 to 9.00.
Consider `COc1cnc(Cl)cc1-c1cc(C)ncc1C(=O)Nc1nc2c(s1)CN(C(=O)c1cccc(C(F)(F)F)n1)C2` [Example 21, 2′-chloro-5′-methoxy-6-methyl-N-(5-(6-(trifluoromethyl)picolinoyl)-5,6-dihydro-4H-pyrrolo[3,4-d]thiazol-2-yl)-[4,4′-bipyridine]-3-carboxamide], for which the IC50 was no less than 10 µM in assay [1] and 0.001 to 0.1 µM in assay [2]. In assay [3], the pIC50 is 7.82 to 9.00.
For `COc1cnc(Cl)cc1-c1cc(C)ncc1C(=O)Nc1nc2c(s1)CN(C(=O)[C@H]1C[C@H](OC(F)(F)F)C1)C2` [Example 26, 2′-chloro-5′-methoxy-6-methyl-N-(5-((1r,3r)-3-(trifluoromethoxy)cyclobutane-1-carbonyl)-5,6-dihydro-4H-pyrrolo[3,4-d]thiazol-2-yl)-[4,4′-bipyridine]-3-carboxamide], in that order: 5 to 10 µM, 0.001 to 0.1 µM and 7.82 to 9.00.
For `COc1cnc(Cl)cc1-c1cc(C)ncc1C(=O)Nc1nc2c(s1)CN(C(=O)c1cncc(Cl)c1)C2` [Example 28, 2′-chloro-N-(5-(5-chloronicotinoyl)-5,6-dihydro-4H-pyrrolo[3,4-d]thiazol-2-yl)-5′-methoxy-6-methyl-[4,4′-bipyridine]-3-carboxamide], the concentration for half-maximal inhibition (IC50) in assay [1] fell in the range of 0.5 to 2 µM; in assay [2], 0.001 to 0.1 µM. Also, in assay [3], the negative-log IC50 (pIC50) was 7.82 to 9.00.
Take `COc1cnc(Cl)cc1-c1cc(C)ncc1C(=O)Nc1nc2c(s1)CN(C(=O)c1ncc(Cl)cn1)C2` [Example 35, 2′-chloro-N-(5-(5-chloropyrimidine-2-carbonyl)-5,6-dihydro-4H-pyrrolo[3,4-d]thiazol-2-yl)-5′-methoxy-6-methyl-[4,4′-bipyridine]-3-carboxamide]: the results for the IC50 in assay [1] and in assay [2] were 2 to 5 µM and 0.001 to 0.1 µM, respectively. Moreover, the pIC50 in assay [3] is 7.82 to 9.00.
For `COc1cnc(Cl)cc1-c1cc(C)ncc1C(=O)Nc1nc2c(s1)CN(C(=O)c1cnc(C(F)F)cc1Cl)C2` [Example 36, 2′-chloro-N-(5-(4-chloro-6-(difluoromethyl)nicotinoyl)-5,6-dihydro-4H-pyrrolo[3,4-d]thiazol-2-yl)-S′-methoxy-6-methyl-[4,4′-bipyridine]-3-carboxamide], in that order: no less than 10 µM, 0.001 to 0.1 µM and 7.82 to 9.00.
The corresponding values for `COc1cnc(Cl)cc1-c1cc(C)ncc1C(=O)Nc1nc2c(s1)CN(C(=O)c1ncc(C(F)(F)F)cn1)C2` [Example 37, 2′-chloro-5′-methoxy-6-methyl-N-(5-(5-(trifluoromethyl)pyrimidine-2-carbonyl)-5,6-dihydro-4H-pyrrolo[3,4-d]thiazol-2-yl)-[4,4′-bipyridine]-3-carboxamide] are no less than 10 µM, 0.001 to 0.1 µM and 7.82 to 9.00.
For `COc1cnc(Cl)cc1-c1cc(C)ncc1C(=O)Nc1nc2c(s1)CN(C(=O)c1ncc(C(F)(F)F)cc1OC)C2` [Example 38, 2′-chloro-5′-methoxy-N-(5-(3-methoxy-5-(trifluoromethyl)picolinoyl)-5,6-dihydro-4H-pyrrolo[3,4-d]thiazol-2-yl)-6-methyl-[4,4′-bipyridine]-3-carboxamide], in that order: no less than 10 µM, 0.001 to 0.1 µM and 7.82 to 9.00.
On to `COc1cnc(Cl)cc1-c1cc(C)ncc1C(=O)Nc1nc2c(s1)CN(C(=O)c1cccnc1C(F)F)C2` [Example 39, 2′-chloro-N-(5-(2-(difluoromethyl)nicotinoyl)-5,6-dihydro-4H-pyrrolo[3,4-d]thiazol-2-yl)-5′-methoxy-6-methyl-[4,4′-bipyridine]-3-carboxamide], for which the values for the 50% inhibitory concentration (IC50) in assay [1] and in assay [2] were no less than 10 µM and 0.001 to 0.1 µM, respectively. For the same molecule, in assay [3], the pIC50 was 7.82 to 9.00.
Turning to `COc1cnc(Cl)cc1-c1cc(C)ncc1C(=O)Nc1nc2c(s1)CN(C(=O)c1cnc(C(F)F)cn1)C2` [Example 40, 2′-chloro-N-(5-(5-(difluoromethyl)pyrazine-2-carbonyl)-5,6-dihydro-4H-pyrrolo[3,4-d]thiazol-2-yl)-5′-methoxy-6-methyl-[4,4′-bipyridine]-3-carboxamide], the IC50 in assay [1] lay within 5 to 10 µM; in assay [2], 0.001 to 0.1 µM. Moreover, the pIC50 in assay [3] was 7.82 to 9.00.
